The results in this text go back to ChEMBL document CHEMBL2311455, “Combining QSAR classification models for predictive modeling of human monoamine oxidase inhibitors” (Eur J Med Chem, 2013).

Assay [1] deals with T1, Amine oxidase [flavin-containing] A (Homo sapiens, UniProt P21397).
T1 sequence (P21397 whole entry): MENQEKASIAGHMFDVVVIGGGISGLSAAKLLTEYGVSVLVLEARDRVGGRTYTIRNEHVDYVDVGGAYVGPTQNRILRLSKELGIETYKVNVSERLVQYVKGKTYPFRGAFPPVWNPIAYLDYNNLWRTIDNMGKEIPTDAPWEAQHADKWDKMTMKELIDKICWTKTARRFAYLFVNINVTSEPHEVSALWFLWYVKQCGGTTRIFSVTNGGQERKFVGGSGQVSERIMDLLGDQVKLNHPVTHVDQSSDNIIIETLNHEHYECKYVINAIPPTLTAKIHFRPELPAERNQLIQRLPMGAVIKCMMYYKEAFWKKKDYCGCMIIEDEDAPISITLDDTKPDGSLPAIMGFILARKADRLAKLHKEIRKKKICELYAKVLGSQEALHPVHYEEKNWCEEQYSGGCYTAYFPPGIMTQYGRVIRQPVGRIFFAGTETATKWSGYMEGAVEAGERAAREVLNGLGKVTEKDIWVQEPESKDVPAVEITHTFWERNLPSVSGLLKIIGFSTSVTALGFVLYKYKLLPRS
Briefly: Inhibition of human recombinant MAOA.

For the next assay, the species on record is Homo sapiens. Briefly: Selectivity index, difference in pIC50 for human recombinant MAOB and pIC50 for human recombinant MAOA.
The target of assay [2] is T2, Amine oxidase [flavin-containing] B (Homo sapiens, UniProt P27338).
T2 sequence (P27338 whole entry): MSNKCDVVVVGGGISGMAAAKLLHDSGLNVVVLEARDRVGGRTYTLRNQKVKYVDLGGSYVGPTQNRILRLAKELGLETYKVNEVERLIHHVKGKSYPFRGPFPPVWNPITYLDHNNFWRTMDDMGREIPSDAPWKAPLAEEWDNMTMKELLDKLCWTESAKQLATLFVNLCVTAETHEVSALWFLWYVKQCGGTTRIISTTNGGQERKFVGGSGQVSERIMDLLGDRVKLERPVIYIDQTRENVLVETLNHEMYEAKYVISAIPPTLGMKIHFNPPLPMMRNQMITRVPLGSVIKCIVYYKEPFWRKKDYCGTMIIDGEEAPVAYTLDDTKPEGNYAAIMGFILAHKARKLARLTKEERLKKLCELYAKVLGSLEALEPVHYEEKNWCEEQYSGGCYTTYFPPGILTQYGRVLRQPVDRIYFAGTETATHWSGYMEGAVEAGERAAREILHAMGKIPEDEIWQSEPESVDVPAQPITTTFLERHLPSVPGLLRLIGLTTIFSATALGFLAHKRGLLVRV
As to the kind of experiment: Inhibition of human recombinant MAOB.

Bounds are passed on as bounds.

As to `O=C(O)c1coc2ccc(Cl)cc2c1=O`, the IC50 was more than 100 µM in assay [1] and more than 1000 µM in assay [2]. Further, the pSI in the assay listed under Homo sapiens is less than -1.
As for `CCOC(=O)c1cc(=O)c2cc(Cl)ccc2o1`, the IC50 in assay [1] was more than 100 µM; in assay [2], 38.9 µM. The pSI in the assay listed under Homo sapiens is more than 0.41.
The like results for `CCOC(=O)c1cc(=O)c2ccccc2o1` were, in that order, more than 100 µM, more than 100 µM and 0.
The like results for `CCOC(=O)c1coc2ccccc2c1=O` were, in that order, more than 100 µM, 1.91 µM and more than 1.72.
Take `O=C(Nc1ccc(O)c(O)c1)c1cc(=O)c2ccccc2o1`: the pSI in the assay filed under Homo sapiens was -1.15.
Turning to `CN(C(=O)c1cc(=O)c2ccccc2o1)c1ccccc1`, the IC50 in assay [1] and in assay [2] was more than 100 µM each time. In addition, the pSI in the assay filed under Homo sapiens was 0.
On to `CCCOC(=O)c1cc(=O)c2ccccc2o1`, for which the results for the 50% inhibitory concentration (IC50) in assay [1] and in assay [2] were more than 100 µM and 35.5 µM, respectively. Further, the pSI in the assay filed under Homo sapiens was more than 0.45.
The like results for `O=c1cc(CO)oc2ccccc12` were, in that order, more than 100 µM, more than 100 µM and 0.
In the case of `O=c1c(CO)coc2ccccc12`, the IC50 in assay [1] is more than 100 µM; in assay [2], 38 µM. The pSI in the assay listed under Homo sapiens is more than 0.42.
Turning to `O=C(O)c1cc(=O)c2cc(Cl)ccc2o1`, the half-inhibitory concentration (IC50) in assay [1] is more than 100 µM; in assay [2] it was more than 1000 µM. Further, the pSI in the assay filed under Homo sapiens is less than -1.
The like results for `CCCOC(=O)c1coc2ccccc2c1=O` were, in that order, more than 100 µM, 5.62 µM and more than 1.25.

The term IC50 denotes the concentration at which inhibition is half-maximal.
